Data taken from patent US20250346585A1 (Alexion Pharmaceuticals, Inc., priority 2022, published 2025).

Molecular target: Human complement C1s enzyme (Homo sapiens (Human), UniProt P09871)
Assay: Human C1s enzyme assay
Type: biochemical
Conditions: Human C1s enzyme assay of Example 3; read-out: IC50 (Stars)
Procedure: Human complement C1s enzyme (purified from human serum, Complement Technology, Inc.) at 1.16 nM final concentration was incubated with test compound at various concentrations for 5 min at room temperature in 50 mM Tris, 1 M NaCl, pH 7.5. A synthetic substrate Z-L-Lys-SBzl and DTNB (Ellman's reagent) were added to final concentrations of 100 μM each. Absorbance at 405 nm (A405) was recorded at 30 second intervals for 30 min using a microplate spectrophotometer. IC50 values were calculated by nonlinear regression of complement C1s reaction rates as a function of test compound concentration.

Chain of Human complement C1s enzyme (P09871 438-688 limits assumed): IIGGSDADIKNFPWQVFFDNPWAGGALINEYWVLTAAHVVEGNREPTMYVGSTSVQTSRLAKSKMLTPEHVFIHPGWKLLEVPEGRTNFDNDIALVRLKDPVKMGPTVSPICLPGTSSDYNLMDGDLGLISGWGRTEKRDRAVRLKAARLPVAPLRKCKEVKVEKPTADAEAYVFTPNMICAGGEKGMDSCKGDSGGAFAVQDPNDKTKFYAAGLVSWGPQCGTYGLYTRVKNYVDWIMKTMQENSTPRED
Chain of Human complement C1s enzyme (P09871 16-437 partner limits assumed): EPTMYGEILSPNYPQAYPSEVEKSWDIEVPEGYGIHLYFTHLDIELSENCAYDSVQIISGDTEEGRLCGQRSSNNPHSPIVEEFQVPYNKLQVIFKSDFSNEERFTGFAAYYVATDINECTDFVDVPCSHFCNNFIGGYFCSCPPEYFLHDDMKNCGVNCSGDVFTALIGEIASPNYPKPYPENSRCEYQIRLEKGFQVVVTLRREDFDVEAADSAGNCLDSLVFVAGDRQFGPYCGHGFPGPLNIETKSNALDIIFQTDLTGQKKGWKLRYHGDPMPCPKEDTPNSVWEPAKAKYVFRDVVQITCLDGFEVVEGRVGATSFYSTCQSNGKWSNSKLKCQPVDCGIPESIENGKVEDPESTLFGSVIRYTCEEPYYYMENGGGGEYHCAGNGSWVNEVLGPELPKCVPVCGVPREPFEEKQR

IC50	SMILES
< 100 nM	COC[C@@]1(F)C[C@@H](C(=O)NCc2ccc(C(=N)N)s2)N(C(=O)CNC(=O)c2ccc(Oc3ccc(F)cc3)cc2)C1 [Compound 68, (2S,4R)—N-((5-carbamimidoylthiophen-2-yl)methyl)-4-fluoro-1-((4-(4-fluorophenoxy)benzoyl)glycyl)-4-(methoxymethyl)pyrrolidine-2-carboxamide]
< 100 nM	Cn1ccc2cc(-c3ccc(C(=O)NCC(=O)N4CC5(C[C@H]4C(=O)NCc4cc(C(=N)N)cs4)OCCO5)cc3)ccc21 [Compound 104, (S)—N-((4-carbamimidoylthiophen-2-yl)methyl)-7-((4-(1-methyl-1H-indol-5-yl)benzoyl)glycyl)-1,4-dioxa-7-azaspiro[4.4]nonane-8-carboxamide]
< 100 nM	C[C@@H](NC(=O)[C@@H]1CC2(CN1C(=O)CNC(=O)c1ccc3c(c1)-c1ccc(F)cc1C3(F)F)OCCO2)c1cc(C(=N)N)cs1 [Compound 193, (8S)—N-[(1R)-1-(4-carbamimidoylthiophen-2-yl)ethyl]-7-{2-[(7,9,9-trifluorofluoren-3-yl)formamido]acetyl}-1,4-dioxa-7-azaspiro[4.4]nonane-8-carboxamide]
< 100 nM	C[C@@H](NC(=O)[C@@H]1C[C@H](c2nccs2)CN1C(=O)CNC(=O)c1ccc(Oc2ccc(F)cc2)cc1)c1cc(C(=N)N)cs1 [Compound 171, (2S,4S)—N—((R)-1-(4-carbamimidoylthiophen-2-yl)ethyl)-1-((4-(4-fluorophenoxy)benzoyl)glycyl)-4-(thiazol-2-yl)pyrrolidine-2-carboxamide]
< 100 nM	CO[C@@H]1C[C@@H](C(=O)N[C@H](C)c2cc(C(=N)N)cs2)N(C(=O)CNC(=O)c2ccc3c(c2)-c2ccccc2C3(F)F)C1 [Compound 71, (2S,4R)—N—((R)-1-(4-carbamimidoylthiophen-2-yl)ethyl)-1-((9,9-difluoro-9H-fluorene-3-carbonyl)glycyl)-4-methoxypyrrolidine-2-carboxamide]
< 100 nM	C[C@H](O)[C@H](O)[C@@H](O)[C@@H](O)CNCC(=O)NCCOC[C@@]12C[C@@H]1N(C(=O)CNC(=O)c1ccc3c(c1)-c1ccccc1C3(F)F)[C@H](C(=O)N[C@H](C)c1cc(C(=N)N)cs1)C2 [Compound 89, (1S,3S,5R)—N—((R)-1-(4-carbamimidoylthiophen-2-yl)ethyl)-2-((9,9-difluoro-9H-fluorene-3-carbonyl)glycyl)-5-((2-(2-(((2S,3S,4S,5S)-2,3,4,5-tetrahydroxyhexyl)amino)acetamido)ethoxy)methyl)-2-azabicyclo[3.1.0]hexane-3-carboxamide]
< 100 nM	C[C@@H](NC(=O)[C@@H]1C[C@](F)(CF)CN1C(=O)CNC(=O)c1ccc2c(c1)-c1ccccc1C2(C)C)c1cc(C(=N)N)cs1 [Compound 153, (2S,4R)—N—((R)-1-(4-carbamimidoylthiophen-2-yl)ethyl)-1-((9,9-dimethyl-9H-fluorene-3-carbonyl)glycyl)-4-fluoro-4-(fluoromethyl)pyrrolidine-2-carboxamide]
< 100 nM	C[C@@H](NC(=O)[C@@H]1C[C@](F)(CF)CN1C(=O)CNC(=O)c1ccc2c(c1)-c1ccccc1C2(F)F)c1ccc(C(=N)N)s1 [Compound 33, (2S,4R)—N—((R)-1-(5-carbamimidoylthiophen-2-yl)ethyl)-1-((9,9-difluoro-9H-fluorene-3-carbonyl)glycyl)-4-fluoro-4-(fluoromethyl)pyrrolidine-2-carboxamide]
< 100 nM	C[C@@H](NC(=O)[C@@H]1CC2(CN1C(=O)CNC(=O)c1ccc3c(c1)-c1ccccc1C3(F)F)OCCO2)c1cc(C(=N)N)cs1 [Compound 21, (S)—N—((R)-1-(4-carbamimidoylthiophen-2-yl)ethyl)-7-((9,9-difluoro-9H-fluorene-3-carbonyl)glycyl)-1,4-dioxa-7-azaspiro[4.4]nonane-8-carboxamide]

Same assay, conditions: Human complement C1s enzyme 1.16 nM, substrate Z-L-Lys-SBzl 100 μM, assay of Example 3; read-out: IC50 (Stars)

IC50	SMILES
< 100 nM	CC1(C)c2ccccc2-c2cc(C(=O)NCC(=O)N3C[C@H](S(C)(=O)=O)C[C@H]3C(=O)N[C@H](CO)c3cc(C(=N)N)cs3)ccc21 [Compound 380, (2S,4R)—N—((R)-1-(4-carbamimidoylthiophen-2-yl)-2-hydroxyethyl)-1-((9,9-dimethyl-9H-fluorene-3-carbonyl)glycyl)-4-(methylsulfonyl) pyrrolidine-2-carboxamide]
< 100 nM	C[C@@H](NC(=O)c1ccc(-c2ccc(F)cc2F)cc1)C(=O)N1CC2(C[C@H]1C(=O)NCc1cc(C(=N)N)cs1)OCCO2 [Compound 301, (S)—N-((4-carbamimidoylthiophen-2-yl)methyl)-7-((2′,4′-difluoro-[1,1′-biphenyl]-4-carbonyl)-D-alanyl)-1,4-dioxa-7-azaspiro[4.4]nonane-8-carboxamide]
> 1000 nM	N=C(N)c1csc(CNC(=O)[C@@H]2CC3(CN2C(=O)CNC(=O)c2ccc(-c4ccc(C(=O)O)c(F)c4)cc2)OCCO3)c1 [Compound 213, (S)-4′-((2-(8-(((4-carbamimidoylthiophen-2-yl)methyl)carbamoyl)-1,4-dioxa-7-azaspiro[4.4]nonan-7-yl)-2-oxoethyl)carbamoyl)-3-fluoro-[1,1′-biphenyl]-4-carboxylic acid]
< 100 nM	Cc1ccc(-c2cnc(C(=O)NCC(=O)N3CC4(C[C@H]3C(=O)N[C@H](C)c3cc(C(=N)N)cs3)OCCO4)c(F)c2)cc1 [Compound 388, (S)—N—((R)-1-(4-carbamimidoylthiophen-2-yl)ethyl)-7-((3-fluoro-5-(p-tolyl)picolinoyl)glycyl)-1,4-dioxa-7-azaspiro[4.4]nonane-8-carboxamide]
< 100 nM	C[C@@H](NC(=O)[C@@H]1C[C@@H]([S@@](C)(=N)=O)CN1C(=O)CNC(=O)c1ccc2c(c1)-c1ccccc1C2(F)F)c1cc(C(=N)N)cs1 [Compound 252, (2S,4R)—N—((R)-1-(4-carbamimidoylthiophen-2-yl)ethyl)-1-((9,9-difluoro-9H-fluorene-3-carbonyl)glycyl)-4-((S)—S-methylsulfonimidoyl)pyrrolidine-2-carboxamide]
< 100 nM	C[C@@H](NC(=O)[C@@H]1C[C@@H](C(F)(F)F)CN1C(=O)CNC(=O)c1ccc(Oc2ccc(F)cc2)cc1)c1cc(C(=N)N)cs1 [Compound 307, (2S,4R)—N—((R)-1-(4-carbamimidoylthiophen-2-yl)ethyl)-1-((4-(4-fluorophenoxy)benzoyl)glycyl)-4-(trifluoromethyl)pyrrolidine-2-carboxamide]
< 100 nM	COC[C@@]1(F)C[C@@H](C(=O)N[C@H](CO)c2cc(C(=N)N)cs2)N(C(=O)CNC(=O)c2ccc3c(c2)C(F)(F)c2ccccc2-3)C1 [Compound 397, (2S,4R)—N—((R)-1-(4-carbamimidoylthiophen-2-yl)-2-hydroxyethyl)-1-((9,9-difluoro-9H-fluorene-2-carbonyl)glycyl)-4-fluoro-4-(methoxymethyl)pyrrolidine-2-carboxamide]
< 100 nM	C[C@@H](NC(=O)[C@@H]1C[C@H](CO)CN1C(=O)CNC(=O)c1ccc2c(c1)-c1ccccc1C2(F)F)c1cc(C(=N)N)cs1 (relative stereo) [Compound 306, (2S,4S*)—N—((R)-1-(4-carbamimidoylthiophen-2-yl)ethyl)-1-((9,9-difluoro-9H-fluorene-3-carbonyl)glycyl)-4-(hydroxymethyl)pyrrolidine-2-carboxamide]
< 100 nM	C[C@@H](NC(=O)[C@@H]1C[C@H](c2ccccn2)CN1C(=O)CNC(=O)c1ccc2c(c1)-c1ccccc1C2(F)F)c1cc(C(=N)N)cs1 [Compound 358, (2S,4S)—N—((R)-1-(4-carbamimidoylthiophen-2-yl)ethyl)-1-((9,9-difluoro-9H-fluorene-3-carbonyl)glycyl)-4-(pyridin-2-yl)pyrrolidine-2-carboxamide]
> 1000 nM	NCCC(=O)Nc1csc(CNC(=O)[C@@H]2CC3(CN2C(=O)CNC(=O)c2ccc(Oc4ccc(F)cc4)cc2)OCCO3)c1 [Compound 311, (S)-N-((4-(3-aminopropanamido)thiophen-2-yl)methyl)-7-((4-(4-fluorophenoxy)benzoyl)glycyl)-1,4-dioxa-7-azaspiro[4.4]nonane-8-carboxamide]

SMILES	IC50
COc1ccc(-c2ccc(C(=O)NCC(=O)N3CC4(C[C@H]3C(=O)NCc3cc(C(=N)N)cs3)OCCO4)cc2)cc1 [Compound 217, (S)—N-((4-carbamimidoylthiophen-2-yl)methyl)-7-((4′-methoxy-[1,1′-biphenyl]-4-carbonyl)glycyl)-1,4-dioxa-7-azaspiro[4.4]nonane-8-carboxamide]	< 100 nM

Same assay, conditions: Human complement C1s enzyme 1.16 nM, substrate Z-L-Lys-SBzl; assay of Example 3; read-out: IC50 (Stars)

IC50	SMILES
< 100 nM	COC[C@@]1(F)C[C@@H](C(=O)N[C@H](CO)c2cc(C(=N)N)cs2)N(C(=O)CNC(=O)c2ccc3c(c2)-c2ccccc2C3(C)C)C1 [Compound 409, (2S,4R)—N—((R)-1-(4-carbamimidoylthiophen-2-yl)-2-hydroxyethyl)-1-((9,9-dimethyl-9H-fluorene-3-carbonyl)glycyl)-4-fluoro-4-(methoxymethyl)pyrrolidine-2-carboxamide]
< 100 nM	N=C(N)c1csc([C@@H](CO)NC(=O)[C@@H]2C[C@@H](OC(F)F)CN2C(=O)CNC(=O)c2ccc3c(c2)-c2ccccc2C3(F)F)c1 [Compound 403, (2S,4R)—N—((R)-1-(4-carbamimidoylthiophen-2-yl)-2-hydroxyethyl)-1-((9,9-difluoro-9H-fluorene-3-carbonyl)glycyl)-4-(difluoromethoxy) pyrrolidine-2-carboxamide]
< 100 nM	C[C@@H](NC(=O)[C@@H]1C[C@@H](c2nccs2)CN1C(=O)CNC(=O)c1ccc(Oc2ccc(F)cc2)cc1)c1cc(C(=N)N)cs1 [Compound 412, (2S,4R)—N—((R)-1-(4-carbamimidoylthiophen-2-yl)ethyl)-1-((4-(4-fluorophenoxy)benzoyl)glycyl)-4-(thiazol-2-yl)pyrrolidine-2-carboxamide]
